Where two headings read alike, the source gives them in different places. Non-standard residues stand in square brackets, D forms with d. Residues, ends and D or L forms follow the SMILES beside them. NMeW = CN[C@@H](Cc1c[nH]c2ccccc12)C(=O)O; NMeI = CC[C@H](C)[C@H](NC)C(=O)O; NMeV = CN[C@H](C(=O)O)C(C)C; NMeA = CN[C@@H](C)C(=O)O
Target: Sushi domains (SD1/2) protein
Test: Fluorescence polarization (FP) competition assay with AJAP-1probe, calculated Ki
Type: binding
Conditions: read-out: Ki (nM) mean ± SEM
Procedure, shortened: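 Ki values were derived from IC50s (sigmoidal fits, ≥ triplicate), with probe Kd obtained by saturation titration of SD1/2. Peptides displaced a 25 nM TAMRA-labelled probe; polarization read at 530/580 nm in 1% BSA-containing PBS, pH 7.4, room temperature.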

[1] = Table 11, deep mutational scanning validation variants of AJAP-1WT
[2] = Table 5, elongation and truncation scan of AJAP-1 binding epitope
[3] = Table 9, Ala-, D-amino acids and N-methylation scans of PIANPWT
[4] = Table 12, deep mutational scanning validation variants of PIANPWT

Row | Structure (SMILES) | Ki [1] | Ki [3] | also measured
1 | CC[C@H](C)[C@H](NC(=O)[C@H](CCCCN)NC(=O)[C@H](CCC(=O)O)NC(=O)[C@@H](NC(=O)[C@H](CCC(=O)O)NC(C)=O)[C@@H](C)O)C(=O)N[C@@H](C)C(=O)N[C@@H](Cc1c[nH]c2ccccc12)C(=O)NCC(=O)N1CCC[C@H]1C(=O)N[C@H](C(=O)NCC(=O)N[C@@H](CC(=O)O)C(=O)N[C@@H](CCC(=O)O)C(=O)N[C@@H](CC(=O)O)C(N)=O)[C@@H](C)O [ETEKIAWGPTGDED] (Ac-ETEKIAWGPTGDED-NH2) |  |  | Ki (Table 11, cells printed in μM): > 6.25 µM
2 | CC[C@H](C)[C@H](NC(=O)[C@H](Cc1ccccc1)NC(C)=O)C(=O)N[C@@H](C)C(=O)N[C@@H](Cc1c[nH]c2ccccc12)C(=O)NCC(=O)N1CCC[C@H]1C(=O)N[C@H](C(=O)NCC(=O)N[C@@H](CC(=O)O)C(=O)N[C@@H](CCC(=O)O)C(=O)N[C@@H](CC(=O)O)C(N)=O)[C@@H](C)O [FIAWGPTGDED] (Ac-FIAWGPTGDED-NH2) |  |  | Ki [2]: 0.118 ± 0.001 µM
3 | CC[C@H](C)[C@H](NC(C)=O)C(=O)N[C@@H](C)C(=O)N[C@@H](Cc1c[nH]c2ccccc12)C(=O)NCC(=O)N1CCC[C@H]1C(=O)N[C@H](C(=O)NCC(=O)N[C@@H](CC(=O)O)C(=O)N[C@@H](CCC(=O)O)C(=O)N[C@@H](CC(=O)O)C(N)=O)[C@@H](C)O [IAWGPTGDED] (Ac-IAWGPTGDED-NH2) |  |  | Ki [2]: 38 ± 0.43 µM
4 | CC[C@H](C)[C@H](NC(=O)[C@H](C)NC(=O)[C@H](Cc1c[nH]c2ccccc12)N(C)C(=O)[C@@H]1CCCN1C(C)=O)C(=O)N[C@H](C(=O)N[C@@H](Cc1c[nH]c2ccccc12)C(=O)NCC(=O)N1CCC[C@H]1C(=O)N[C@H](C(=O)N[C@H](C(=O)N[C@@H](CO)C(=O)N[C@@H](CCCNC(=N)N)C(=O)N[C@@H](CCC(=O)O)C(=O)N[C@@H](CC(=O)O)C(N)=O)C(C)C)[C@@H](C)O)C(C)C [P(N-Me-W)AIVWGPTVSRED] (Ac-P[NMeW]AIVWGPTVSRED-NH2) |  | 0.833 ± 0.012 µM | 
5 | CC[C@H](C)[C@H](NC(=O)[C@H](C)NC(=O)[C@H](C)NC(=O)[C@@H]1CCCN1C(C)=O)C(=O)N[C@H](C(=O)N[C@@H](Cc1c[nH]c2ccccc12)C(=O)NCC(=O)N1CCC[C@H]1C(=O)N[C@H](C(=O)N[C@H](C(=O)N[C@@H](CO)C(=O)N[C@@H](CCCNC(=N)N)C(=O)N[C@@H](CCC(=O)O)C(=O)N[C@@H](CC(=O)O)C(N)=O)C(C)C)[C@@H](C)O)C(C)C [PAAIVWGPTVSRED] (Ac-PAAIVWGPTVSRED-NH2) |  | 0.911 ± 0.013 µM | 
6 | CC[C@H](C)[C@H](NC(=O)[C@H](C)NC(=O)[C@H](CC(=O)O)NC(=O)[C@@H]1CCCN1C(C)=O)C(=O)N[C@H](C(=O)N[C@@H](Cc1c[nH]c2ccccc12)C(=O)NCC(=O)N1CCC[C@H]1C(=O)N[C@H](C(=O)N[C@H](C(=O)N[C@@H](CO)C(=O)N[C@@H](CCCNC(=N)N)C(=O)N[C@@H](CCC(=O)O)C(=O)N[C@@H](CC(=O)O)C(N)=O)C(C)C)[C@@H](C)O)C(C)C [PDAIVWGPTVSRED] (Ac-PDAIVWGPTVSRED-NH2) |  |  | Ki [4]: 0.673 ± 0.007 µM
7 | CC[C@H](C)[C@H](NC(=O)[C@H](C)NC(=O)[C@H](Cc1ccccc1)NC(=O)[C@@H]1CCCN1C(C)=O)C(=O)N[C@H](C(=O)N[C@@H](Cc1c[nH]c2ccccc12)C(=O)NCC(=O)N1CCC[C@H]1C(=O)N[C@H](C(=O)N[C@H](C(=O)N[C@@H](CO)C(=O)N[C@@H](CCCNC(=N)N)C(=O)N[C@@H](CCC(=O)O)C(=O)N[C@@H](CC(=O)O)C(N)=O)C(C)C)[C@@H](C)O)C(C)C [PFAIVWGPTVSRED] (Ac-PFAIVWGPTVSRED-NH2) |  |  | Ki [4]: 0.792 ± 0.011 µM
8 | CC[C@H](C)[C@H](NC(=O)[C@H](C)NC(=O)[C@H](Cc1c[nH]cn1)NC(=O)[C@@H]1CCCN1C(C)=O)C(=O)N[C@H](C(=O)N[C@@H](Cc1c[nH]c2ccccc12)C(=O)NCC(=O)N1CCC[C@H]1C(=O)N[C@H](C(=O)N[C@H](C(=O)N[C@@H](CO)C(=O)N[C@@H](CCCNC(=N)N)C(=O)N[C@@H](CCC(=O)O)C(=O)N[C@@H](CC(=O)O)C(N)=O)C(C)C)[C@@H](C)O)C(C)C [PHAIVWGPTVSRED] (Ac-PHAIVWGPTVSRED-NH2) |  |  | Ki [4]: 1.5 ± 0.05 µM
9 | CC[C@H](C)[C@H](NC(=O)[C@H](C)NC(=O)[C@H](CO)NC(=O)[C@@H]1CCCN1C(C)=O)C(=O)N[C@H](C(=O)N[C@@H](Cc1c[nH]c2ccccc12)C(=O)NCC(=O)N1CCC[C@H]1C(=O)N[C@H](C(=O)N[C@H](C(=O)N[C@@H](CO)C(=O)N[C@@H](CCCNC(=N)N)C(=O)N[C@@H](CCC(=O)O)C(=O)N[C@@H](CC(=O)O)C(N)=O)C(C)C)[C@@H](C)O)C(C)C [PSAIVWGPTVSRED] (Ac-PSAIVWGPTVSRED-NH2) |  |  | Ki [4]: 0.906 ± 0.02 µM
10 | CC[C@H](C)[C@H](NC(=O)[C@H](C)N(C)C(=O)[C@H](Cc1c[nH]c2ccccc12)NC(=O)[C@@H]1CCCN1C(C)=O)C(=O)N[C@H](C(=O)N[C@@H](Cc1c[nH]c2ccccc12)C(=O)NCC(=O)N1CCC[C@H]1C(=O)N[C@H](C(=O)N[C@H](C(=O)N[C@@H](CO)C(=O)N[C@@H](CCCNC(=N)N)C(=O)N[C@@H](CCC(=O)O)C(=O)N[C@@H](CC(=O)O)C(N)=O)C(C)C)[C@@H](C)O)C(C)C [PW(N-Me-A)IVWGPTVSRED] (Ac-PW[NMeA]IVWGPTVSRED-NH2) |  | 7.23 ± 0.13 µM | 
11 | CC[C@H](C)[C@@H](C(=O)N[C@H](C(=O)N[C@@H](Cc1c[nH]c2ccccc12)C(=O)NCC(=O)N1CCC[C@H]1C(=O)N[C@H](C(=O)N[C@H](C(=O)N[C@@H](CO)C(=O)N[C@@H](CCCNC(=N)N)C(=O)N[C@@H](CCC(=O)O)C(=O)N[C@@H](CC(=O)O)C(N)=O)C(C)C)[C@@H](C)O)C(C)C)N(C)C(=O)[C@H](C)NC(=O)[C@H](Cc1c[nH]c2ccccc12)NC(=O)[C@@H]1CCCN1C(C)=O [PWA(N-Me-I)VWGPTVSRED] (Ac-PWA[NMeI]VWGPTVSRED-NH2) |  | 0.37 ± 0.005 µM | 
12 | CC(=O)N1CCC[C@H]1C(=O)N[C@@H](Cc1c[nH]c2ccccc12)C(=O)N[C@@H](C)C(=O)N[C@@H](C)C(=O)N[C@H](C(=O)N[C@@H](Cc1c[nH]c2ccccc12)C(=O)NCC(=O)N1CCC[C@H]1C(=O)N[C@H](C(=O)N[C@H](C(=O)N[C@@H](CO)C(=O)N[C@@H](CCCNC(=N)N)C(=O)N[C@@H](CCC(=O)O)C(=O)N[C@@H](CC(=O)O)C(N)=O)C(C)C)[C@@H](C)O)C(C)C [PWAAVWGPTVSRED] (Ac-PWAAVWGPTVSRED-NH2) |  | 46.6 ± 4.83 µM | 
13 | CC[C@H](C)[C@H](NC(=O)[C@H](C)NC(=O)[C@H](Cc1c[nH]c2ccccc12)NC(=O)[C@@H]1CCCN1C(C)=O)C(=O)N(C)[C@H](C(=O)N[C@@H](Cc1c[nH]c2ccccc12)C(=O)NCC(=O)N1CCC[C@H]1C(=O)N[C@H](C(=O)N[C@H](C(=O)N[C@@H](CO)C(=O)N[C@@H](CCCNC(=N)N)C(=O)N[C@@H](CCC(=O)O)C(=O)N[C@@H](CC(=O)O)C(N)=O)C(C)C)[C@@H](C)O)C(C)C [PWAI(N-Me-V)WGPTVSRED] (Ac-PWAI[NMeV]WGPTVSRED-NH2) |  | 7 ± 0.1 µM | 

Further lines, with some results ahead:

Row | Ki [1] | Ki [3] | Structure (SMILES) | also measured
14 | 0.035 ± 0.002 µM |  | CC[C@H](C)[C@H](NC(=O)[C@H](Cc1c[nH]c2ccccc12)NC(=O)[C@H](CCC(=O)O)NC(=O)[C@@H](NC(=O)[C@H](CCC(=O)O)NC(C)=O)[C@@H](C)O)C(=O)N[C@@H](C)C(=O)N[C@@H](Cc1c[nH]c2ccccc12)C(=O)NCC(=O)N1CCC[C@H]1C(=O)N[C@H](C(=O)NCC(=O)N[C@@H](CC(=O)O)C(=O)N[C@@H](CCC(=O)O)C(=O)N[C@@H](CC(=O)O)C(N)=O)[C@@H](C)O [ETEWIAWGPTGDED] (Ac-ETEWIAWGPTGDED-NH2) | 
15 | 0.018 ± 0.001 µM |  | CC[C@H](C)[C@H](NC(=O)[C@H](Cc1ccc(O)cc1)NC(=O)[C@H](CCC(=O)O)NC(=O)[C@@H](NC(=O)[C@H](CCC(=O)O)NC(C)=O)[C@@H](C)O)C(=O)N[C@@H](C)C(=O)N[C@@H](Cc1c[nH]c2ccccc12)C(=O)NCC(=O)N1CCC[C@H]1C(=O)N[C@H](C(=O)NCC(=O)N[C@@H](CC(=O)O)C(=O)N[C@@H](CCC(=O)O)C(=O)N[C@@H](CC(=O)O)C(N)=O)[C@@H](C)O [ETEYIAWGPTGDED, Ac-ETEYIAWGPTGDED-NH2] (Ac-ETEYIAWGPTGDED-NH2) | 
16 | 0.058 ± 0.004 µM |  | CC[C@H](C)[C@H](NC(=O)[C@H](Cc1ccccc1)NC(=O)[C@H](Cc1c[nH]cn1)NC(=O)[C@@H](NC(=O)[C@H](CCC(=O)O)NC(C)=O)[C@@H](C)O)C(=O)N[C@@H](C)C(=O)N[C@@H](Cc1c[nH]c2ccccc12)C(=O)NCC(=O)N1CCC[C@H]1C(=O)N[C@H](C(=O)NCC(=O)N[C@@H](CC(=O)O)C(=O)N[C@@H](CCC(=O)O)C(=O)N[C@@H](CC(=O)O)C(N)=O)[C@@H](C)O [ETHFIAWGPTGDED] | 
17 | 0.034 ± 0.001 µM |  | CC[C@H](C)[C@H](NC(=O)[C@H](Cc1ccccc1)NC(=O)[C@H](CO)NC(=O)[C@@H](NC(=O)[C@H](CCC(=O)O)NC(C)=O)[C@@H](C)O)C(=O)N[C@@H](C)C(=O)N[C@@H](Cc1c[nH]c2ccccc12)C(=O)NCC(=O)N1CCC[C@H]1C(=O)N[C@H](C(=O)NCC(=O)N[C@@H](CC(=O)O)C(=O)N[C@@H](CCC(=O)O)C(=O)N[C@@H](CC(=O)O)C(N)=O)[C@@H](C)O [ETSFIAWGPTGDED] (Ac-ETSFIAWGPTGDED-NH2) | 
18 | 0.028 ± 0.001 µM |  | CC[C@H](C)[C@H](NC(=O)[C@H](Cc1ccccc1)NC(=O)[C@H](CCC(=O)O)NC(=O)[C@@H](NC(=O)[C@H](CCC(=O)O)NC(C)=O)C(C)C)C(=O)N[C@@H](C)C(=O)N[C@@H](Cc1c[nH]c2ccccc12)C(=O)NCC(=O)N1CCC[C@H]1C(=O)N[C@H](C(=O)NCC(=O)N[C@@H](CC(=O)O)C(=O)N[C@@H](CCC(=O)O)C(=O)N[C@@H](CC(=O)O)C(N)=O)[C@@H](C)O [EVEFIAWGPTGDED] (Ac-EVEFIAWGPTGDED-NH2) | 
19 | 0.062 ± 0.003 µM |  | CC[C@H](C)[C@H](NC(=O)[C@H](Cc1ccccc1)NC(=O)[C@H](CCC(=O)O)NC(=O)[C@@H](NC(=O)[C@H](CC(N)=O)NC(C)=O)[C@@H](C)O)C(=O)N[C@@H](C)C(=O)N[C@@H](Cc1c[nH]c2ccccc12)C(=O)NCC(=O)N1CCC[C@H]1C(=O)N[C@H](C(=O)NCC(=O)N[C@@H](CC(=O)O)C(=O)N[C@@H](CCC(=O)O)C(=O)N[C@@H](CC(=O)O)C(N)=O)[C@@H](C)O [NTEFIAWGPTGDED] (Ac-NTEFIAWGPTGDED-NH2) | 
